From ChEMBL document CHEMBL1144805, “The cephalostatin way of apoptosis” (2008)

What was measured:
CCRF-CEM = assay: Cytotoxicity against human CCRF-CEM cells; assay type: functional
EKVX = assay: Cytotoxicity against human EKVX cells; assay type: functional
HOP-18 = assay: Cytotoxicity against human HOP18 cells; assay type: functional
HOP-62 = assay: Cytotoxicity against human HOP62 cells; assay type: functional
HOP-92 = assay: Cytotoxicity against human HOP92 cells; assay type: functional
NCI-H226 = assay: Cytotoxicity against human NCI-H226 cells; assay type: functional
NCI-H23 = assay: Cytotoxicity against human NCI-H23 cells; assay type: functional
NCI-H322M = assay: Cytotoxicity against human NCI-H322M cells; assay type: functional
NCI-H460 = assay: Cytotoxicity against human NCI-H460 cells; assay type: functional
NCI-H522 = assay: Cytotoxicity against human NCI-H522 cells; assay type: functional
[1] = Cytotoxicity against human LXFL529 cells; assay type: functional; conditions: LXFL 529
[2] = Cytotoxicity against human DMS144 cells; assay type: functional
DMS-273 = assay: Cytotoxicity against human DMS273 cells; assay type: functional
COLO 205 = assay: Cytotoxicity against human COLO205 cells; assay type: functional
DLD-1 = assay: Cytotoxicity against human DLD1 cells; assay type: functional
[3] = Cytotoxicity against human HCC2996 cells; assay type: functional
HCT-116 = assay: Cytotoxicity against human HCT116 cells; assay type: functional
HCT-15 = assay: Cytotoxicity against human HCT15 cells; assay type: functional
HT-29 = assay: Cytotoxicity against human HT29 cells; assay type: functional
KM12 = assay: Cytotoxicity against human KM12 cells; assay type: functional
KM-20L2 = assay: Cytotoxicity against human KM20L2 cells; assay type: functional
SW-620 = assay: Cytotoxicity against human SW620 cells; assay type: functional
SF-268 = assay: Cytotoxicity against human SF268 cells; assay type: functional
SF-295 = assay: Cytotoxicity against human SF295 cells; assay type: functional
SF-539 = assay: Cytotoxicity against human SF539 cells; assay type: functional
SNB-19 = assay: Cytotoxicity against human SNB19 cells; assay type: functional
SNB-75 = assay: Cytotoxicity against human SNB75 cells; assay type: functional
SNB-78 = assay: Cytotoxicity against human SNB78 cells; assay type: functional
U-251 = assay: Cytotoxicity against human U251 cells; assay type: functional
XF498 = assay: Cytotoxicity against human XF498 cells; assay type: functional
LOX IMVI = assay: Cytotoxicity against human LOXIMVI cells; assay type: functional
M14 = assay: Cytotoxicity against human M14 cells; assay type: functional
M19-MEL = assay: Cytotoxicity against human M19-MEL cells; assay type: functional
SK-MEL-2 = assay: Cytotoxicity against human SK-MEL-2 cells; assay type: functional
SK-MEL-28 = assay: Cytotoxicity against human SK-MEL-28 cells; assay type: functional
SK-MEL-5 = assay: Cytotoxicity against human SK-MEL-5 cells; assay type: functional
UACC-257 = assay: Cytotoxicity against human UACC257 cells; assay type: functional
UACC-62 = assay: Cytotoxicity against human UACC62 cells; assay type: functional
IGROV-1 = assay: Cytotoxicity against human IGROV1 cells; assay type: functional
OVCAR-3 = assay: Cytotoxicity against human OVCAR-3 cells; assay type: functional
OVCAR-4 = assay: Cytotoxicity against human OVCAR4 cells; assay type: functional
OVCAR-5 = assay: Cytotoxicity against human OVCAR5 cells; assay type: functional
OVCAR-8 = assay: Cytotoxicity against human OVCAR8 cells; assay type: functional
SK-OV-3 = assay: Cytotoxicity against human SK-OV-3 cells; assay type: functional
[4] = Cytotoxicity against human […] cells; assay type: functional
ACHN = assay: Cytotoxicity against human ACHN cells; assay type: functional
CAKI-1 = assay: Cytotoxicity against human CAKI1 cells; assay type: functional
RXF 393 = assay: Cytotoxicity against human RXF393 cells; assay type: functional
[5] = Cytotoxicity against human RXF631 cells; assay type: functional; conditions: RXF 631
SN12C = assay: Cytotoxicity against human SN12C cells; assay type: functional
[6] = Cytotoxicity against human TK20 cells; assay type: functional
UO-31 = assay: Cytotoxicity against human UO31 cells; assay type: functional
PC-3 = assay: Cytotoxicity against human PC3 cells; assay type: functional
DU-145 = assay: Cytotoxicity against human DU145 cells; assay type: functional
MCF7 = assay: Cytotoxicity against human MCF7 cells; assay type: functional
NCI/ADR-RES = assay: Cytotoxicity against human NCI/ADR-RES cells; assay type: functional
MDA-MB-231 = assay: Cytotoxicity against human MDA-MB-231 cells; assay type: functional
Hs-578T = assay: Cytotoxicity against human HS578T cells; assay type: functional
MDA-MB-435 = assay: Cytotoxicity against human MDA-MB-435 cells; assay type: functional
MDA-N = assay: Cytotoxicity against human MDAN cells; assay type: functional
BT-549 = assay: Cytotoxicity against human BT549 cells; assay type: functional
T47D = assay: Cytotoxicity against human T47D cells; assay type: functional
SR = assay: Cytotoxicity against human SR cells; assay type: functional
A549 = assay: Cytotoxicity against human A549 cells; assay type: functional
MOLT-4 = assay: Cytotoxicity against human MOLT4 cells; assay type: functional
RPMI-8226 = assay: Cytotoxicity against human RPMI8226 cells; assay type: functional
[7] = Cytotoxicity against human HL60(TB) cells; assay type: functional, HL-60(TB); conditions: HL-60
K562 = assay: Cytotoxicity against human K562 cells; assay type: functional
Malme-3M = assay: Cytotoxicity against human MALME3M cells; assay type: functional
[8] = Cytotoxicity against human 786-O cells; assay type: functional; conditions: 786-0

SMILES: C[C@@H]1[C@]2(O[C@H]3C=C4[C@@H]5CC[C@H]6Cc7nc8c(nc7C[C@]6(C)[C@H]5C[C@@H](O)[C@]4(C)[C@]31O)C[C@@H]1CC[C@H]3C4=CC[C@@H]5[C@H](C)[C@@]6(OC[C@]45C(=O)C[C@@H]3[C@@]1(C)C8)OC(C)(C)C[C@H]6O)O[C@](C)(CO)C[C@H]2O [CEPHALOSTATIN 1]
- GI50 (CCRF-CEM): 0.309 nM
- GI50 (EKVX): 5.37 nM
- GI50 (HOP-18): 72.4 nM
- GI50 (HOP-62): 0.24 nM
- GI50 (HOP-92): 0.661 nM
- GI50 (NCI-H226): 275 nM
- GI50 (NCI-H23): 550 nM
- GI50 (NCI-H322M): 91.2 nM
- GI50 (NCI-H460): 0.269 nM
- GI50 (NCI-H522): 120 nM
- GI50 [1]: 0.331 nM
- GI50 [2]: 0.166 nM
- GI50 (DMS-273): 0.11 nM
- GI50 (COLO 205): 1.55 nM
- GI50 (DLD-1): 41.7 nM
- GI50 [3]: 95.5 nM
- GI50 (HCT-116): 0.692 nM
- GI50 (HCT-15): 4.07 nM
- GI50 (HT-29): 2.82 nM
- GI50 (KM12): 1.86 nM
- GI50 (KM-20L2): 1.2 nM
- GI50 (SW-620): 0.977 nM
- GI50 (SF-268): 1.1 nM
- GI50 (SF-295): 0.123 nM
- GI50 (SF-539): 0.151 nM
- GI50 (SNB-19): 4.57 nM
- GI50 (SNB-75): 0.1 nM
- GI50 (SNB-78): 0.776 nM
- GI50 (U-251): 0.182 nM
- GI50 (XF498): 0.724 nM
- GI50 (LOX IMVI): 0.324 nM
- GI50 (M14): 0.955 nM
- GI50 (M19-MEL): 617 nM
- GI50 (SK-MEL-2): 1.1 nM
- GI50 (SK-MEL-28): 0.617 nM
- GI50 (SK-MEL-5): 2.34 nM
- GI50 (UACC-257): 4.27 nM
- GI50 (UACC-62): 0.316 nM
- GI50 (IGROV-1): 3.98 nM
- GI50 (OVCAR-3): 70.8 nM
- GI50 (OVCAR-4): 38.9 nM
- GI50 (OVCAR-5): 13.2 nM
- GI50 (OVCAR-8): 60.3 nM
- GI50 (SK-OV-3): 1.02 nM
- GI50 [4]: 1.41 nM
- GI50 (ACHN): 8.13 nM
- GI50 (CAKI-1): 1.55 nM
- GI50 (RXF 393): 0.1 nM
- GI50 [5]: 0.309 nM
- GI50 (SN12C): 295 nM
- GI50 [6]: 33.9 nM
- GI50 (UO-31): 0.617 nM
- GI50 (PC-3): 0.288 nM
- GI50 (DU-145): 53.7 nM
- GI50 (MCF7): 0.355 nM
- GI50 (NCI/ADR-RES): 69.2 nM
- GI50 (MDA-MB-231): 1.2 nM
- GI50 (Hs-578T): 0.112 nM
- GI50 (MDA-MB-435): 0.813 nM
- GI50 (MDA-N): 1.86 nM
- GI50 (BT-549): 0.759 nM
- GI50 (T47D): 245 nM
- GI50 (SR): 0.209 nM
- GI50 (A549): 0.513 nM
- GI50 (MOLT-4): 0.204 nM
- GI50 (RPMI-8226): 0.107 nM
- GI50 [7]: 0.355 nM
- GI50 (K562): 0.617 nM
- GI50 (Malme-3M): 8.13 nM
- GI50 [8]: 0.17 nM
